Patent US10315990B2, “Isothiocyanate compounds and isothiocyanate XPO1 protein inhibitor drugs thereof” (DRIVINGFORCE THERAPEUTICS Co., Ltd., priority 2015, dated 2019)

What was measured:
IBD animal model = experiment: Macroscopic pathological changes of IBD animal model (enteroclysis with TNBS); assay type: in vivo, SD rats; settings: TNBS rats; for Macroscopic pathological score: 80 mg/kg intragastrically daily, score 0-5, 10 animals
Description: Eight-week-old male SD rats (10 rats per group) were fasted for 24 hours and anaesthetized with diethyl ether. 50% ethanol and TNBS (2,4,6-trinitrobenzenesulfonic acid) were mixed to prepare a solution. In the IBD model group, a tube made of vinyl resin was inserted 5 cm from anus, and enteroclysis was performed with the TNBS solution in a dose of 100 mg/kg. The rats were hung upside down 30 seconds later after the enteroclysis to ensure no leakage of the TNBS solution. In the control group, the TNBS solution was replaced with normal saline with which enteroclysis was performed. Seven days later after the enteroclysis with the TNBS solution or normal saline, animals were sacrificed and dissected. […] Two weeks later after treated with the drugs, the animals were sacrificed and dissected, and large intestine thereof was taken out and fixed in 4% formalin solution for 30 minutes. The large intestine of the animals was cut lengthwise from the mesentery side to take photos for rectum portion and measure the weight of rectum. Based on the macroscopic observation and judgment score (Table 2-1), ulceration and bleeding states of rectum portion were scored according to the macroscopic observation scoring standard.

TNF-α = experiment: Serum TNF-α level of IBD animal model (ELISA); assay type: in vivo, SD rats; settings: 80 mg/kg, three days after making the TNBS model
Text: (§1) Inflammatory bowel disease is an autoimmune disease. […] The therapeutic effect of the representative compound for the immune system disease or inflammation can be assessed by detecting change in levels of some important cytokines such as TNF-α and IL-6 at downstream of the signal path.

IL-6 = experiment: Serum IL-6 level of IBD animal model (ELISA); assay type: in vivo, SD rats; settings: 80 mg/kg, three days after making the TNBS model
Text: as §1

XPO1 protein = target: T1, XPO1 protein (Homo sapiens, UniProt O14980); experiment: Inhibitory activity for XPO1 protein (NES-GFP nuclear export, laser confocal microscope); assay type: cell-based; settings: NES-GFP nuclear export, cells treated for 2 hours
T1 construct: Sixteen hours later, NES-GFP plasmid was transfected with liposome; endogenous in cells
Text: NES (nuclear export signal) is a nuclear export signal peptide recognized by XPO1 protein. XPO1 recognizes NES sequence peptide segment of biomacromolecule and exports the biomacromolecule out of nucleus. NES-GFP protein is obtained by co-expressing green fluorescence protein GFP and NES sequence peptide segment by using a eukaryotic expression plasmid. Inhibitory activity of the representative compound for XPO1 protein can be assessed by detecting influence of the compound on NES-GFP cell localization.
The cells were digested with trypsin, counted, and inoculated on 96-well plate in an amount of 1.5×10^4 cells per well. Sixteen hours later, NES-GFP plasmid was transfected with liposome.

HMLE-Snail cell line = experiment: Formation of HMLE-Snail cell line spheroids; assay type: cell-based; settings: 10 μg/ml, treated for 24 hours; control = 100; read-out: Colony (%): cell colony number of drug-treated group/cell colony number of control group × 100%
Description: HMLE-Snail cell line is one of most classic cell models for studying tumor cell metastasis and EMT path. HMLE-Snail cell line highly expresses Snail protein, and thus one of most remarkable features thereof is that it has spherical cellular morphology (spheroid). […] The HMLE-Snail cell line used in the present invention was donated by Dr. Robert Weinberg from America Massachusetts Whitehead Institute. HMLE-Snail cells were suspended in a liquid culture medium (in which B-27 and N-2 were added, purchased from America Invitrogen Corporation) containing DMEM/F12 in a ratio of 1:1, in an amount of 1.0×10^3 cells/ml, and cultured in an ultra low attachment culture plate so as to allow spheroids to be formed. Seven days later, spheroids were collected by centrifugation, and counted. […] Docetaxel is a common clinical chemotherapy drug.

[1] = test system: SK-OV3 (high metastasis type ovarian cancer cell line); experiment: Ovarian cancer intraperitoneal metastasis animal model; assay type: in vivo, nudemice (BALB/c-nu/nu); settings: Mus musculus, SK-OV-3, ip; for response vs control in vivo at 80 mg/kg: 80 mg/kg intraperitoneal injection once a day for 3 weeks; for mortality at 80 mg/kg: six mice per group, read-out: Mortality (within 30 days) (converted)
Description: The ovarian cancer intraperitoneal metastasis animal model is one of most classic animal models for studying anti-ovarian cancer metastasis drug. Sixty 5 to 6-week-old female nudemice with similar weight (BALB/c-nu/nu) were chosen. SK-OV3 (high metastasis type ovarian cancer cell line) stably expressing green fluorescence protein was screened, and prepared into a cell suspension of 2×10^6 cells/100 μl with serum-free PRMI1640 medium. […] Three weeks later, the cancer was detected with a small animal in vivo imaging apparatus (Xenogen, School of Medicine, Shanghai Jiaotong University) and photos thereof were taken. […] In the table, T represents the drug-treated group, and C represents the blank control group. T/C is (V/V0 of compound-treated group)/(V/V0 of blank control group) in which V represents the cancer volume of mouse on the day the detection was performed, and V0 represents the cancer volume of mouse on the day the administration begun.

HCT116 = experiment: Inhibitory activity for high metastasis type colon cancer cell line (MTT or CCK-8); assay type: cell-based; settings: Homo sapiens, HCT-116; HCT116, 72 hours; read-out: IC50
Description: (§2) SW620 and HCT116 are two typical high metastasis type colon cancer cell lines. The colon cancer cell line was inoculated on 96-well cell culture plate in an amount of 6000 cells per well and cultured at 37° C. for 24 hours, and then treated solely with the compound added therein and cultured. Seventy-two hours later, MTT or CCK-8 method was used to detect the inhibitory activity of the compound for the two high metastasis type colon cancer cell lines.

SW620 = experiment: as above; assay type: cell-based; settings: Homo sapiens, SW-620; SW620, 72 hours; read-out: IC50
Description: as §2

NCI-H1650 = experiment: cells; assay type: cell-based; settings: Homo sapiens; NCI-H1650, 72 hours; read-out: IC50
Description: (§3) NCI-H1975 and NCI-H1650 are two typical high metastasis type lung cancer cell lines. The therapeutic effect of the representative compound for the metastasis type lung cancers can be preliminarily assessed by detecting the inhibitory activity of the representative compound for the two cell lines. The lung cancer cell line was inoculated on 96-well cell culture plate in an amount of 6000 cells per well and cultured at 37° C. for 24 hours, and then treated solely with the compound added therein and cultured. Seventy-two hours later, MTT or CCK-8 method was used to detect the inhibitory activity of the compound for the two lung cancer cell lines.

NCI-H1975 = experiment: cells; assay type: cell-based; settings: Homo sapiens; NCI-H1975, 72 hours; read-out: IC50
Description: as §3

T1 sequence (O14980 whole entry, species assumed): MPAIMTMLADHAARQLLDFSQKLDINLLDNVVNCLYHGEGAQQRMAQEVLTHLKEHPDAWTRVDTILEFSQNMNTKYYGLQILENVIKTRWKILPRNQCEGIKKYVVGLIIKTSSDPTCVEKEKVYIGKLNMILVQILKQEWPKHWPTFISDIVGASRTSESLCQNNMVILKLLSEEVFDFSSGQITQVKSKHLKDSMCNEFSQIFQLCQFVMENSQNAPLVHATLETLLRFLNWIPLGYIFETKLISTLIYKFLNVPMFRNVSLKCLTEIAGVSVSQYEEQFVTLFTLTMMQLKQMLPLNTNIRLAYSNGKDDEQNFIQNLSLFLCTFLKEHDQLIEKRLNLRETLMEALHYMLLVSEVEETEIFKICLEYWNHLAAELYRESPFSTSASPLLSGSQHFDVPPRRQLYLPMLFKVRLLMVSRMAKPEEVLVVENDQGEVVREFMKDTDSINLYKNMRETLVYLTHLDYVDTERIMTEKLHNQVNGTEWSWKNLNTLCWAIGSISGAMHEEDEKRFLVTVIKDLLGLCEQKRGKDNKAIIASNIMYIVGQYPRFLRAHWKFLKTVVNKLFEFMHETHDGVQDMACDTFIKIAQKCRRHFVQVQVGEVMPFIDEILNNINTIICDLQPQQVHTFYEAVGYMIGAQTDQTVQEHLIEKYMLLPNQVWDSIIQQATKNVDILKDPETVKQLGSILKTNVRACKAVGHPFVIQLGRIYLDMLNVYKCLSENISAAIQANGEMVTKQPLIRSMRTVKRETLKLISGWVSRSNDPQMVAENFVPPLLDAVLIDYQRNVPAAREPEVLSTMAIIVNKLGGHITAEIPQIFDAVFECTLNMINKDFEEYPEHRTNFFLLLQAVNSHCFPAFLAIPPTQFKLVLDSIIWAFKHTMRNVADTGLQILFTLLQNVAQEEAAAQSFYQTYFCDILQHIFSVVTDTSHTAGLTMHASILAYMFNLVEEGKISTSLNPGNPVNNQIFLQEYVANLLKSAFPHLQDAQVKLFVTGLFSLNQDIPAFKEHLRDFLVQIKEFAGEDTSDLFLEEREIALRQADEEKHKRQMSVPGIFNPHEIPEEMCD

Row | SMILES | Activity (μM): inhibitory activity for XPO1 protein (full inhibitory concentration) (XPO1 protein) | activity at 10 µg/mL (HMLE-Snail cell line) | further results
1 | Nc1ccc(O)c(C(=O)O)c1 [Compound 5-ASA, 5-aminosalicylic acid, reference compound] |  |  | Macroscopic pathological score (IBD animal model): 4.0 ± 0.2; colon tissue bleeding and ulceration phenomena (in words) (IBD animal model; 80 mg/kg): small relief extent; Serum TNF-α level, Animal-1 (TNF-α): 1.7 ng/mL; Serum TNF-α level, Animal-2 (TNF-α): 1.8 ng/mL; Serum TNF-α level, Animal-3 (TNF-α): 2.0 ng/mL; Serum IL-6 level, Animal-1 (IL-6): 2.7 ng/mL; Serum IL-6 level, Animal-2 (IL-6): 2.2 ng/mL; Serum IL-6 level, Animal-3 (IL-6): 2.3 ng/mL
2 | [O-][S+](/C=C/CCN=C=S)c1ccc2cccc3c2c1CC=C3 (stereo not drawn) [Compound I-13] | 1 to 5 µM | 30 to 35% | 
3 | [O-][S+](/C=C/CCN=C=S)c1ccc(Br)cc1 (stereo not drawn) [Compound I-02] | 1 to 5 µM | 30 to 35% | Macroscopic pathological score (IBD animal model): 2.0 ± 0.4
4 | [O-][S+](/C=C/CCN=C=S)c1cncc(C(F)(F)F)c1 (stereo not drawn) [Compound I-16] | 0.5 to 1 µM | 35 to 40% | 
5 | [O-][S+](/C=C/CCN=C=S)c1ccc2c(c1)CCCC2 (stereo not drawn) [Compound I-10] | 1 to 5 µM | 30 to 35% | 
6 | [O-][S+](/C=C/CCN=C=S)c1ccc2ncccc2c1 (stereo not drawn) [Compound I-17] | 0.5 to 1 µM | 30 to 35% | response vs control in vivo at 80 mg/kg ([1]; 504 h, read-out: T/C (%)): 27%; mortality at 80 mg/kg ([1]; 720 h): 0%
7 | O=c1ccc2cc([S+]([O-])/C=C/CCN=C=S)ccc2o1 (stereo not drawn) [Compound I-19] | 1 to 5 µM | 25 to 30% | 
8 | NS(=O)(=O)c1cc([S+]([O-])/C=C/CCN=C=S)cc(C(F)(F)F)c1 (stereo not drawn) [Compound I-07] | 0.5 to 1 µM | 20 to 25% | 
9 | COc1ccc(Sc2ccc([S+]([O-])/C=C/CCN=C=S)cc2)cc1 (stereo not drawn) [Compound I-28] | 0.5 to 1 µM | 15 to 20% | IC50 (HCT116): 150 nM; IC50 (SW620): 190 nM
10 | [O-][S+](/C=C/CCN=C=S)c1ccc2ncncc2c1 (stereo not drawn) [Compound I-18] | 1 to 5 µM | 30 to 35% | 
11 | COc1ccc2nc([S+]([O-])/C=C/CCN=C=S)[nH]c2c1 (stereo not drawn) [Compound I-24] | 1 to 5 µM | 20 to 25% | 
12 | [O-][S+](/C=C/CCN=C=S)c1ccc(-c2ccccc2)cc1 (stereo not drawn) [Compound I-26] | 0.5 to 1 µM | 20 to 25% | 
13 | [O-][S+](/C=C/CCN=C=S)c1nc2ccccc2s1 (stereo not drawn) [Compound I-20] | 1 to 5 µM | 30 to 35% | Macroscopic pathological score (IBD animal model): 2.0 ± 0.3; Serum TNF-α level, Animal-1 (TNF-α): 1.3 ng/mL; Serum TNF-α level, Animal-2 (TNF-α): 1.2 ng/mL; Serum TNF-α level, Animal-3 (TNF-α): 1.1 ng/mL; Serum IL-6 level, Animal-1 (IL-6): 1.0 ng/mL; Serum IL-6 level, Animal-2 (IL-6): 1.1 ng/mL; Serum IL-6 level, Animal-3 (IL-6): 1.0 ng/mL
14 | C[S+]([O-])/C=C/CCN=C=S (stereo not drawn) [SFE, sulforaphene, reference compound] | 10 to 15 µM |  | 
15 | COc1cc([S+]([O-])/C=C/CCN=C=S)cc(C(F)(F)F)c1 (stereo not drawn) [Compound I-05] | 0.5 to 1 µM | 20 to 25% | 
16 | N#Cc1cc([S+]([O-])/C=C/CCN=C=S)cc(C(F)(F)F)c1 (stereo not drawn) [Compound I-08] | 0.5 to 1 µM | 15 to 20% | Serum TNF-α level, Animal-1 (TNF-α): 1.0 ng/mL; Serum TNF-α level, Animal-2 (TNF-α): 1.2 ng/mL; Serum TNF-α level, Animal-3 (TNF-α): 1.1 ng/mL; Serum IL-6 level, Animal-1 (IL-6): 0.8 ng/mL; Serum IL-6 level, Animal-2 (IL-6): 0.7 ng/mL; Serum IL-6 level, Animal-3 (IL-6): 0.8 ng/mL; IC50 (NCI-H1650): 200 nM; IC50 (NCI-H1975): 170 nM; response vs control in vivo at 80 mg/kg ([1]; 504 h, read-out: T/C (%)): 23%; mortality at 80 mg/kg ([1]; 720 h): 0%
17 | CC(C)C[S+]([O-])/C=C/CCN=C=S (stereo not drawn) [Compound F-04, reference compound] | 10 to 15 µM | 60 to 65% | 
18 | [O-][S+](/C=C/CCN=C=S)c1ccc2cc3ccccc3cc2c1 (stereo not drawn) [Compound I-12] | 1 to 5 µM | 30 to 35% | 
19 | [O-][S+](/C=C/CCN=C=S)c1cccnc1 (stereo not drawn) [Compound I-15] | 1 to 5 µM | 35 to 40% | 
20 | [O-][S+](/C=C/CCN=C=S)c1ccc2c(c1)Cc1ccccc1-2 (stereo not drawn) [Compound I-14] | 1 to 5 µM | 25 to 30% | 
21 | CC(=O)O[C@@]12CO[C@@H]1C[C@H](O)[C@@]1(C)C(=O)[C@H](O)C3=C(C)[C@@H](OC(=O)[C@H](O)[C@@H](NC(=O)OC(C)(C)C)c4ccccc4)C[C@@](O)([C@@H](OC(=O)c4ccccc4)[C@H]21)C3(C)C [Docetaxel, docetaxel] |  | 81% | response vs control in vivo at 20 mg/kg ([1]; 504 h, 20 mg/kg intraperitoneal injection once a day for 3 weeks, read-out: T/C (%)): 77%; mortality at 20 mg/kg ([1]; 720 h, read-out: Mortality (within 30 days)): 0%
22 | [O-][S+](/C=C/CCN=C=S)c1ccc(N2CCOCC2)cc1 (stereo not drawn) [Compound I-09] | 1 to 5 µM | 25 to 30% | 
23 | [O-][S+](/C=C/CCN=C=S)c1nc2cc(C(F)(F)F)ccc2s1 (stereo not drawn) [Compound I-21] | 1 to 5 µM | 30 to 35% | 
24 | [O-][S+](/C=C/CCN=C=S)c1nc2ccccc2[nH]1 (stereo not drawn) [Compound I-22] | 1 to 5 µM | 30 to 35% | 
25 | [O-][S+](/C=C/CCN=C=S)c1nc2ccc(C(F)(F)F)cc2[nH]1 (stereo not drawn) [Compound I-23] | 1 to 5 µM | 30 to 35% | 
